# Experimental data as given in PubChem BioAssay AID1648 (Sanford-Burnham Center for Chemical Genomics, 2009).
# Activity calls are given as the source filed them. The rule behind the calls is not given here.
# Target: Serine/threonine-protein kinase mTOR (Homo sapiens) (UniProt P42345)
# Assay: binders of mTOR FRB domain, biophysical, NMR (AID 1648)
# Settings: NMR binding to FRB domain, chemical shift
# Serine/threonine-protein kinase mTOR (Homo sapiens), sequence (P42345 2015-2114): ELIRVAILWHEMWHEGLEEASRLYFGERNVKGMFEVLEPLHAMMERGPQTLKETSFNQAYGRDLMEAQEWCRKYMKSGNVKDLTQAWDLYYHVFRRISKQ
row,Compound,Kd
1,[O-][n+]1c2ccccc2[n+]([O-])c2cc(O)ccc21,> 4 mM (inactive)
2,C=CCSCC=C,> 4 mM (inactive)
3,CN1CCn2c1nc(N1CCCCC1)nc2=O,> 4 mM (inactive)
4,Cc1ccc(C(=O)Nn2cnnc2)c(Cl)c1,> 4 mM (inactive)
5,CC(=O)Nc1ccc(Cl)c(C(N)=O)c1,> 4 mM (inactive)
6,C(=N\c1nccs1)/c1cccnc1,> 4 mM (inactive)
7,O=C(OC[C@H]1O[C@H](OC(=O)c2cc(O)c(O)c(OC(=O)c3cc(O)c(O)c(O)c3)c2)[C@H](OC(=O)c2cc(O)c(O)c(OC(=O)c3cc(O)c(O)c(O)c3)c2)[C@@H](OC(=O)c2cc(O)c(O)c(OC(=O)c3cc(O)c(O)c(O)c3)c2)[C@@H]1OC(=O)c1cc(O)c(O)c(OC(=O)c2cc(O)c(O)c(O)c2)c1)c1cc(O)c(O)c(OC(=O)c2cc(O)c(O)c(O)c2)c1,> 4 mM (inactive)
8,O=C(O)/C=C(\CC(=O)O)C(=O)O,> 4 mM (inactive)
9,Cc1ccc(-c2nn3c(C)nnc3s2)cc1N,> 4 mM (inactive)
10,CC(=O)N1CCC(NC2CCCCCC2)CC1,> 4 mM (inactive)
11,Cn1cccc1C=C1C(=O)NC(=S)NC1=O,> 4 mM (inactive)
12,O=C(O)Cn1cc(C(=O)C2CC2)c2ccccc21,> 4 mM (inactive)
13,CC(=O)Oc1c2c(c(CC=C(C)C)c3c1C(=O)C1=C[C@@H]4CC5C(C)(C)OC(C/C=C(\C)C(=O)O)(C4=O)[C@@]15O3)OC(C)(CCC=C(C)C)C=C2 (some centres not stated),> 4 mM (inactive)
14,Cc1cc(C)cc(OC(=O)N2CCOCC2)c1,> 4 mM (inactive)
15,COc1ccc(C(C)=O)c(OC)c1,> 4 mM (inactive)
16,Nc1ccc(-n2cccc2)cc1,> 4 mM (inactive)
17,Cc1cc(C)n(S(=O)(=O)c2cc(C)c(C)cc2C)n1,> 4 mM (inactive)
18,CNC(=O)C(=O)Nc1ccc(C)c(C)c1,> 4 mM (inactive)
19,Cn1nc(C(=O)Nc2cccnc2)cc1Cl,> 4 mM (inactive)
20,Nc1ncnc2c1ncn2C1O[C@H](COP(=O)(O)O)[C@@H](O)[C@H]1O (some centres not stated),> 4 mM (inactive)
21,C[C@H]1C(=O)CCC2[C@]3(C)CC[C@@]4(C)C5CC(C)(C)CC[C@]5(C)CC[C@]4(C)C3CC[C@@]21C (some centres not stated),> 4 mM (inactive)

row,Compound,Kd
1,C=CC(C1=CC(=O)C=CC1=O)c1ccccc1 (configuration not stated),> 4 mM (inactive)
2,Cc1nnc(N2CCc3ccccc3C2)[nH]c1=O,> 4 mM (inactive)
3,CCC(C)C(=O)c1c(O)c(C)c2oc3c(C)c(O)c(C(=O)C(C)CC)c(O)c3c2c1O (configuration not stated),> 4 mM (inactive)
4,NC(=O)CN1CC(c2ccccc2)CC1=O (configuration not stated),> 4 mM (inactive)
5,Cc1cc(C(=O)NCc2cccnc2)cs1,> 4 mM (inactive)
6,CC(C)(C)c1cc(CN)c(C(=O)O)o1,> 4 mM (inactive)
7,O=S1(=O)NC(=NCc2ccccc2)c2ccccc21,> 4 mM (inactive)
8,CCCn1cnn2c(=O)cc(C)nc12,> 4 mM (inactive)
9,Cc1ccc(N2C(=O)C3C4C=CC(O4)C3C2=O)cc1 (configuration not stated),> 4 mM (inactive)
10,O=C1C=C(Nc2ccccc2O)c2ccccc2C1=O,> 4 mM (inactive)
11,CC[C@H]1CN2CCC1C[C@@H]2[C@@H](O)c1ccnc2ccc(OC)cc12 (some centres not stated),> 4 mM (inactive)
12,Cc1ccc(Nc2nc(N)nc(CC#N)n2)cc1,> 4 mM (inactive)
13,O=CN1CCN(C(=O)c2ccccc2F)CC1,> 4 mM (inactive)
14,O=S1(=O)CCC(NC(=S)N2CCCCC2)C1 (configuration not stated),> 4 mM (inactive)
15,Nc1ccc(Oc2ccccc2)nc1,> 4 mM (inactive)
16,Cc1ccc(-c2nc(N)n(C(=O)c3cccnc3)n2)cc1,> 4 mM (inactive)
17,COc1ccc(-c2cc(=O)c3c(O)cc(O[C@@H]4O[C@H](CO[C@H]5O[C@H](C)[C@@H](O)[C@H](O)[C@@H]5O)[C@@H](O)[C@H](O)[C@H]4O)cc3o2)cc1O,> 4 mM (inactive)
18,COC(=O)Cc1cccc(OC)c1,> 4 mM (inactive)
19,COC(=O)c1nc(-c2ccccc2)oc1N(C)C,> 4 mM (inactive)
20,O=C(O)c1cccc(N2C(=O)C3CC=CCC3C2=O)c1 (configuration not stated),> 4 mM (inactive)
21,O=C(Cc1ccc(F)cc1)Nc1ncccn1,> 4 mM (inactive)

row,Compound,Kd
1,CS(=O)(=O)N1CCN(C(=O)c2ccccc2)CC1,> 4 mM (inactive)
2,O=C(O)CCS(=O)(=O)c1ccccc1,> 4 mM (inactive)
3,Cc1ccc(SCc2cc(=O)n3[nH]cnc3n2)cc1,> 4 mM (inactive)
4,O=C(O)/C=C/C(=O)Nc1ccccc1C(F)(F)F,> 4 mM (inactive)
5,COc1c2ccoc2c(OC)c2oc(=O)ccc12,> 4 mM (inactive)
6,O=C(CC1SC(=O)NC1=O)Nc1nccs1 (configuration not stated),> 4 mM (inactive)
7,Cc1ccc(NC(=O)N2CCC(C(N)=O)CC2)cc1,> 4 mM (inactive)
8,O=C(NCCCO)c1ccncc1,> 4 mM (inactive)
9,C=C1CSc2nc(=O)c3c(C)c(C)sc3n21,> 4 mM (inactive)
10,CCN1CCC(=NO)CC1,> 4 mM (inactive)
11,O=C(Nc1cccnc1)c1cccs1,> 4 mM (inactive)
12,O=C(O)c1cnn2ccccc12,> 4 mM (inactive)
13,O=C(O)CC12CC3CC(CC(O)(C3)C1)C2,> 4 mM (inactive)
14,CN(C)c1nc(N)nc(-c2nc3ccccc3s2)n1,> 4 mM (inactive)
15,COc1cccc(-c2nn(-c3ccccc3)cc2CO)c1,> 4 mM (inactive)
16,COc1cc(N)ncn1,> 4 mM (inactive)
17,CC(=O)N=c1cccc(NC(C)=O)n1O,> 4 mM (inactive)
18,Nc1cc(F)ccc1-n1ccnc1,> 4 mM (inactive)
19,Cc1cc(NC(=O)Cc2c(F)cccc2Cl)no1,> 4 mM (inactive)
20,CC1C[C@H]2CC(=O)[C@H]3CCCN4CCC[C@H]2[C@]34C1 (some centres not stated),> 4 mM (inactive)
21,Cn1cnnc1SCC(=O)Nc1nccs1,> 4 mM (inactive)

row,Compound,Kd
1,O=C1OC(N2CCOCC2)c2ccccc21 (configuration not stated),> 4 mM (inactive)
2,CCc1ccc(C(=O)N2CCCC2)s1,> 4 mM (inactive)
3,CC(C)=CCC/C(C)=C/CC/C(C)=C/CC/C(C)=C/CC/C(C)=C/CC/C(C)=C/CC/C(C)=C/CC/C(C)=C/CC/C(C)=C/CO,> 4 mM (inactive)
4,O=S(=O)(Nc1ccc2c(c1)OCCO2)c1cccs1,> 4 mM (inactive)
5,Cc1cc(C(=O)NCc2cccnc2)no1,> 4 mM (inactive)
6,Cc1cc(C(=O)c2c(C)nn(C)c2Cl)n(C)n1,> 4 mM (inactive)
7,O=C(NCc1cccc(Cl)c1)c1cnccn1,> 4 mM (inactive)
8,Cc1ccccc1NC(=O)c1ccccc1,> 4 mM (inactive)
9,COC(=O)c1ccc2nccnc2c1,> 4 mM (inactive)
10,NC(=O)CSCc1c(Cl)cccc1Cl,> 4 mM (inactive)
11,CCOC(=O)CC1Sc2ccccc2NC1=S (configuration not stated),> 4 mM (inactive)
12,O=[N+]([O-])c1cccc(-c2c[n+](=O)c3c(n2[O-])CCC3)c1,> 4 mM (inactive)
13,O=C(O)CCC(=O)Nc1nnc(C(F)(F)F)s1,> 4 mM (inactive)
14,Cn1c2ccccc2n2c(=S)[nH]nc12,> 4 mM (inactive)
15,Cn1c(SCC(=O)NCCO)nc2ccccc2c1=O,> 4 mM (inactive)
16,C[N+](C)(C)CC(O)CC(=O)O (configuration not stated),> 4 mM (inactive)
17,Cc1cc([N+](=O)[O-])cc[n+]1[O-],> 4 mM (inactive)
18,COC(=O)c1c(C)cc(OC)cc1O,> 4 mM (inactive)
19,COc1cc(-c2csc(C)n2)ccc1O,> 4 mM (inactive)
